Laboratory results as given in ChEMBL document CHEMBL1201862, “PubChem BioAssay data set” (2004).
Values joined by “and” are separate entries in the source; they are usually repeats but may differ in a detail not shown here. Equal values may be shown once.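 Briefly, cells in 96-well plates were exposed to five compound concentrations for 48 h, and endpoints were estimated by linear interpolation. GI50 is the concentration that inhibits growth by half.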 Active and inactive are the calls of the source. No stated cut-off is given here; in the data, active = GI50 up to about 1.1 µM and inactive = higher.

Assays:
Test in all cases: DTP human tumour cell line panel, 48 h
[1] = system: 786-0
[2] = system: A498
[3] = system: A549
[4] = system: CAKI-1
[5] = system: CCRF-CEM
[6] = system: COLO 205
[7] = system: DU-145
[8] = system: EKVX
[9] = system: HCC 2998
[10] = system: HCT-116
[11] = system: HCT-15
[12] = system: HL-60
[13] = system: HOP-92
[14] = system: HT-29
[15] = system: Hs-578T
[16] = system: IGROV-1
[17] = system: K562
[18] = system: KM12
[19] = system: LOX IMVI
[20] = system: MCF7
[21] = system: MDA-MB-231
[22] = system: MDA-MB-435
[23] = system: MDA-N
[24] = system: MOLT-4
[25] = system: NCI-H226
[26] = system: NCI-H23
[27] = system: NCI-H460
[28] = system: NCI-H522
[29] = system: NCI/ADR-RES
[30] = system: OVCAR-3
[31] = system: OVCAR-4
[32] = system: OVCAR-5
[33] = system: OVCAR-8
[34] = system: PC-3
[35] = system: RPMI-8226
[36] = system: RXF 393
[37] = system: SF-268
[38] = system: SF-295
[39] = system: SF-539
[40] = system: SK-MEL-28
[41] = system: SK-MEL-2
[42] = system: SK-MEL-5
[43] = system: SK-OV-3
[44] = system: SN12C
[45] = system: SNB-19
[46] = system: SNB-75
[47] = system: SW-620
[48] = system: T47D
[49] = system: TK-10
[50] = system: U-251
[51] = system: UACC-257
[52] = system: UACC-62
[53] = system: UO-31
[54] = system: ACHN
[55] = system: M14
[56] = system: Malme-3M
[57] = system: SR
[58] = system: HOP-62

With `COc1ccc(/N=c2/[nH]c(N)c(C(=O)c3ccc(OC)cc3)s2)cc1` the GI50 [1] was 0.441 µM (active), the GI50 [2] was 0.46 µM (active) and the GI50 [3] was 0.59 µM (active). For the same compound, the GI50 [4] was 313 nM (active), the GI50 [5] was 0.183 µM (active) and the GI50 [6] was 279 nM (active). The GI50 [7] was 378 nM (active), the GI50 [8] was 17.3 µM (inactive) and the GI50 [9] was 0.755 µM (active). For the same compound, the GI50 [10] was 0.365 µM (active), the GI50 [11] was 0.412 µM and the GI50 [12] was 0.119 µM (active). The GI50 [13] was 25.1 µM (inactive), the GI50 [14] was 316 nM (active) and the GI50 [15] was 0.277 µM (active). For the same compound, the GI50 [16] was 471 nM (active), the GI50 [17] was 49.2 nM (active) and the GI50 [18] was 0.378 µM (active). The GI50 [19] was 596 nM (active), the GI50 [20] was 3.23 µM (inactive) and the GI50 [21] was 1 µM (active). For the same compound, the GI50 [22] was 0.0306 µM (active), the GI50 [23] was 30.1 nM (active) and the GI50 [24] was 0.0851 µM (active). The GI50 [25] was 17.7 µM (inactive), the GI50 [26] was 0.508 µM (active) and the GI50 [27] was 0.347 µM (active). The GI50 [28] was 0.127 µM (active), the GI50 [29] was 0.211 µM (active) and the GI50 [30] was 255 nM (active). For the same compound, the GI50 [31] was 755 nM (active), the GI50 [32] was 15.3 µM (inactive) and the GI50 [33] was 0.537 µM (active). The GI50 [34] was 0.284 µM (active), the GI50 [35] was 0.164 µM (active) and the GI50 [36] was 0.324 µM (active). For the same compound, the GI50 [37] was 12.9 µM (inactive), the GI50 [38] was 0.159 µM (active) and the GI50 [39] was 0.313 µM (active). For the same compound, the GI50 [40] was 4.55 µM (inactive), the GI50 [41] was 288 nM (active) and the GI50 [42] was 381 nM (active). The GI50 [43] was 0.376 µM (active), the GI50 [44] was 1.93 µM (inactive) and the GI50 [45] was 0.474 µM (active). For the same compound, the GI50 [46] was 0.31 µM (active), the GI50 [47] was 0.273 µM (active) and the GI50 [48] was 18.7 µM (inactive). For the same compound, the GI50 [49] was 15.1 µM (inactive), the GI50 [50] was 310 nM (active) and the GI50 [51] was > 100 µM (inactive). For the same compound, the GI50 [52] was 0.481 µM (active) and the GI50 [53] was 0.468 µM (active).

`OCC(O)C(O)C(O)C(/C=N\Nc1ncnc2c(Br)cc(Br)cc12)=N/Nc1ncnc2c(Br)cc(Br)cc12` (centres undefined) was tested, and the GI50 [54] was 5.58 µM (inactive) and 6.35 µM (inactive), the GI50 [4] was 4.85 µM (inactive) and 6.34 µM (inactive) and the GI50 [6] was 3.17 µM (inactive) and 3.52 µM (inactive). The GI50 [7] was 5.9 µM (inactive) and 3.42 µM (inactive), the GI50 [14] was 4.84 µM (inactive) and 4.55 µM (inactive) and the GI50 [16] was 4.71 µM (inactive) and 2.49 µM (inactive). For the same compound, the GI50 [17] was 5.07 µM (inactive) and 5.15 µM (inactive), the GI50 [19] was 6.43 µM (inactive) and 10.1 µM (inactive) and the GI50 [55] was 8.2 µM (inactive) and 8.38 µM (inactive). The GI50 [20] was 1.24 µM (inactive) and 817 nM (active), the GI50 [21] was 3.67 µM (inactive) and 3.79 µM (inactive) and the GI50 [23] was 7.46 µM (inactive) and 6.08 µM (inactive). The GI50 [56] was 6.4 µM (inactive) and 3.76 µM (inactive), the GI50 [25] was 3.58 µM (inactive) and the GI50 [30] was 4.28 µM (inactive) and 2.88 µM (inactive). For the same compound, the GI50 [31] was 2.81 µM (inactive) and 3.27 µM (inactive), the GI50 [37] was 3.78 µM (inactive) and 3.15 µM (inactive) and the GI50 [39] was 8.85 µM (inactive). The GI50 [41] was 5.41 µM (inactive) and 3.27 µM (inactive), the GI50 [42] was 3.45 µM (inactive) and 4.71 µM (inactive) and the GI50 [57] was 3.4 µM (inactive) and 5.25 µM (inactive). For the same compound, the GI50 [47] was 5.46 µM (inactive), the GI50 [48] was 2.57 µM (inactive) and 2.62 µM (inactive) and the GI50 [50] was 2.49 µM (inactive) and 4.46 µM (inactive). The GI50 [51] was 8.15 µM (inactive) and 12.9 µM (inactive).

`COc1ccc(OC)c(N(CN2C(=O)CCC2C(=O)O)C(C)=O)c1` (centres undefined) was tested, and the GI50 [1] was > 100 µM (inactive), the GI50 [2] was > 100 µM (inactive) and the GI50 [3] was > 100 µM (inactive). For the same compound, the GI50 [54] was > 100 µM (inactive), the GI50 [4] was > 100000 nM (inactive) and the GI50 [5] was > 100 µM (inactive). For the same compound, the GI50 [6] was > 100000 nM (inactive), the GI50 [7] was > 100000 nM (inactive) and the GI50 [8] was > 100 µM (inactive). The GI50 [10] was > 100 µM (inactive), the GI50 [11] was over 100 µM and the GI50 [12] was > 100 µM (inactive). The GI50 [58] was > 100 µM (inactive), the GI50 [13] was > 100 µM (inactive) and the GI50 [14] was > 100000 nM (inactive). The GI50 [15] was > 100 µM (inactive), the GI50 [16] was > 100000 nM (inactive) and the GI50 [17] was > 100000 nM (inactive). For the same compound, the GI50 [18] was > 100 µM (inactive), the GI50 [19] was > 100000 nM (inactive) and the GI50 [55] was > 100 µM (inactive). For the same compound, the GI50 [20] was > 100 µM (inactive), the GI50 [21] was > 100 µM (inactive) and the GI50 [22] was > 100 µM (inactive). For the same compound, the GI50 [23] was > 100000 nM (inactive), the GI50 [24] was > 100 µM (inactive) and the GI50 [56] was > 100 µM (inactive). For the same compound, the GI50 [25] was > 100 µM (inactive), the GI50 [26] was > 100 µM (inactive) and the GI50 [27] was > 10 µM (inactive). For the same compound, the GI50 [28] was > 100 µM (inactive), the GI50 [29] was > 100 µM (inactive) and the GI50 [30] was > 100000 nM (inactive). For the same compound, the GI50 [31] was > 100000 nM (inactive), the GI50 [32] was > 100 µM (inactive) and the GI50 [33] was > 100 µM (inactive). The GI50 [34] was > 100 µM (inactive), the GI50 [35] was > 100 µM (inactive) and the GI50 [37] was > 100 µM (inactive). For the same compound, the GI50 [38] was > 100 µM (inactive), the GI50 [39] was > 100 µM (inactive) and the GI50 [40] was > 100 µM (inactive). The GI50 [41] was > 100000 nM (inactive), the GI50 [42] was > 100000 nM (inactive) and the GI50 [43] was > 100 µM (inactive). For the same compound, the GI50 [44] was > 100 µM (inactive), the GI50 [45] was > 100 µM (inactive) and the GI50 [46] was > 100 µM (inactive). For the same compound, the GI50 [57] was > 100 µM (inactive), the GI50 [47] was > 100 µM (inactive) and the GI50 [48] was > 100 µM (inactive). For the same compound, the GI50 [49] was > 100 µM (inactive), the GI50 [50] was > 100000 nM (inactive) and the GI50 [51] was > 100 µM (inactive). The GI50 [52] was > 100 µM (inactive) and the GI50 [53] was > 100 µM (inactive).
